From patent publication US7396837B2, “Antitumoral analogs of lamellarins” (Pharma Mar, S.A.U., priority 2002, dated 2008)

What follows are compounds tested on LoVo-Dox (assay: SRB colorimetric cell growth inhibition assay, LoVo-Dox (MDR)). Settings: Homo sapiens, LOVO-DOX; GI=growth inhibition; read-out: GI50 LOVO-DOX.
Format: cell-based
How it was run: (§1)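 Continuous drug exposure of human cancer cells; SRB protein stain read-out; triplicate wells, mean ± SD; GI, TGI, LC computed.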

| Structure (SMILES) | GI50 [nM] |
| --- | --- |
| COc1cc(-c2c3c4cc(OC)c(OC(=O)C[C@H](N)C(C)C)cc4oc(=O)c3n3ccc4cc(OC(=O)C[C@H](N)C(C)C)c(OC)cc4c23)ccc1OC(=O)C[C@H](N)C(C)C [Compound 206] | 294 |

Same assay, conditions: Homo sapiens, LOVO-DOX; cell killing (cytotoxic effect); read-out: LC50 LOVO-DOX

| Structure (SMILES) | CC50 [nM] |
| --- | --- |
| COc1cc(-c2c3c4cc(OC)c(OC(=O)C[C@H](N)C(C)C)cc4oc(=O)c3n3ccc4cc(OC(=O)C[C@H](N)C(C)C)c(OC)cc4c23)ccc1OC(=O)C[C@H](N)C(C)C [Compound 206] | 6370 |

Same assay, conditions: Homo sapiens, LOVO-DOX; total growth inhibition (cytostatic effect); read-out: TGI LOVO-DOX

| Structure (SMILES) | IC (TGI) [nM] |
| --- | --- |
| COc1cc(-c2c3c4cc(OC)c(OC(=O)C[C@H](N)C(C)C)cc4oc(=O)c3n3ccc4cc(OC(=O)C[C@H](N)C(C)C)c(OC)cc4c23)ccc1OC(=O)C[C@H](N)C(C)C [Compound 206] | 1010 |

The compounds below were run on IGROV (assay: SRB colorimetric cell growth inhibition assay, IGROV). Settings: Homo sapiens, IGROV; GI=growth inhibition; read-out: GI50 IGROV.
Format: cell-based
How it was run: as §1

| Structure (SMILES) | GI50 [nM] |
| --- | --- |
| COc1cc(-c2c3c4cc(OC)c(OC(=O)C[C@H](N)C(C)C)cc4oc(=O)c3n3ccc4cc(OC(=O)C[C@H](N)C(C)C)c(OC)cc4c23)ccc1OC(=O)C[C@H](N)C(C)C [Compound 206] | 52.7 |

Same assay, conditions: Homo sapiens, IGROV; cell killing (cytotoxic effect); read-out: LC50 IGROV

| Structure (SMILES) | CC50 [nM] |
| --- | --- |
| COc1cc(-c2c3c4cc(OC)c(OC(=O)C[C@H](N)C(C)C)cc4oc(=O)c3n3ccc4cc(OC(=O)C[C@H](N)C(C)C)c(OC)cc4c23)ccc1OC(=O)C[C@H](N)C(C)C [Compound 206] | 589 |

Same assay, conditions: Homo sapiens, IGROV; total growth inhibition (cytostatic effect); read-out: TGI IGROV

| Structure (SMILES) | IC (TGI) [nM] |
| --- | --- |
| COc1cc(-c2c3c4cc(OC)c(OC(=O)C[C@H](N)C(C)C)cc4oc(=O)c3n3ccc4cc(OC(=O)C[C@H](N)C(C)C)c(OC)cc4c23)ccc1OC(=O)C[C@H](N)C(C)C [Compound 206] | 194 |

What follows are compounds tested on DU-145 (assay: SRB colorimetric cell growth inhibition assay, DU-145). Settings: Homo sapiens, DU-145, DU-145; GI=growth inhibition; read-out: GI50 DU-145.
Format: cell-based
How it was run: as §1

| Structure (SMILES) | GI50 [nM] |
| --- | --- |
| COc1cc(-c2c3c4cc(OC)c(OC(=O)C[C@H](N)C(C)C)cc4oc(=O)c3n3ccc4cc(OC(=O)C[C@H](N)C(C)C)c(OC)cc4c23)ccc1OC(=O)C[C@H](N)C(C)C [Compound 206] | 21.8 |

Same assay, conditions: Homo sapiens, DU-145, DU-145; cell killing (cytotoxic effect); read-out: LC50 DU-145

| Structure (SMILES) | CC50 [nM] |
| --- | --- |
| COc1cc(-c2c3c4cc(OC)c(OC(=O)C[C@H](N)C(C)C)cc4oc(=O)c3n3ccc4cc(OC(=O)C[C@H](N)C(C)C)c(OC)cc4c23)ccc1OC(=O)C[C@H](N)C(C)C [Compound 206] | 72.5 |

Same assay, conditions: Homo sapiens, DU-145, DU-145; total growth inhibition (cytostatic effect); read-out: TGI DU-145

| Structure (SMILES) | IC (TGI) [nM] |
| --- | --- |
| COc1cc(-c2c3c4cc(OC)c(OC(=O)C[C@H](N)C(C)C)cc4oc(=O)c3n3ccc4cc(OC(=O)C[C@H](N)C(C)C)c(OC)cc4c23)ccc1OC(=O)C[C@H](N)C(C)C [Compound 206] | 39.9 |

Each compound was assayed on LNCaP (assay: SRB colorimetric cell growth inhibition assay, LNCaP). Settings: Homo sapiens, LNCaP, LN-caP; GI=growth inhibition; read-out: GI50 LN-caP.
Format: cell-based
How it was run: as §1

| Structure (SMILES) | GI50 [nM] |
| --- | --- |
| COc1cc(-c2c3c4cc(OC)c(OC(=O)C[C@H](N)C(C)C)cc4oc(=O)c3n3ccc4cc(OC(=O)C[C@H](N)C(C)C)c(OC)cc4c23)ccc1OC(=O)C[C@H](N)C(C)C [Compound 206] | 75.2 |

Same assay, conditions: Homo sapiens, LNCaP, LN-caP; cell killing (cytotoxic effect); read-out: LC50 LN-caP

| Structure (SMILES) | CC50 [nM] |
| --- | --- |
| COc1cc(-c2c3c4cc(OC)c(OC(=O)C[C@H](N)C(C)C)cc4oc(=O)c3n3ccc4cc(OC(=O)C[C@H](N)C(C)C)c(OC)cc4c23)ccc1OC(=O)C[C@H](N)C(C)C [Compound 206] | 3330 |

Same assay, conditions: Homo sapiens, LNCaP, LN-caP; total growth inhibition (cytostatic effect); read-out: TGI LN-caP

| Structure (SMILES) | IC (TGI) [nM] |
| --- | --- |
| COc1cc(-c2c3c4cc(OC)c(OC(=O)C[C@H](N)C(C)C)cc4oc(=O)c3n3ccc4cc(OC(=O)C[C@H](N)C(C)C)c(OC)cc4c23)ccc1OC(=O)C[C@H](N)C(C)C [Compound 206] | 475 |

What follows are compounds tested on A-549 (assay: SRB colorimetric cell growth inhibition assay, A-549). Settings: Homo sapiens, A549, A-549; GI=growth inhibition; read-out: GI50 A-549.
Format: cell-based
How it was run: as §1

| Structure (SMILES) | GI50 [nM] |
| --- | --- |
| COc1cc(-c2c3c4cc(OC)c(OC(=O)C[C@H](N)C(C)C)cc4oc(=O)c3n3ccc4cc(OC(=O)C[C@H](N)C(C)C)c(OC)cc4c23)ccc1OC(=O)C[C@H](N)C(C)C [Compound 206] | 55.8 |

Same assay, conditions: Homo sapiens, A549, A-549; cell killing (cytotoxic effect); read-out: LC50 A-549

| Structure (SMILES) | CC50 [nM] |
| --- | --- |
| COc1cc(-c2c3c4cc(OC)c(OC(=O)C[C@H](N)C(C)C)cc4oc(=O)c3n3ccc4cc(OC(=O)C[C@H](N)C(C)C)c(OC)cc4c23)ccc1OC(=O)C[C@H](N)C(C)C [Compound 206] | 2770 |

Same assay, conditions: Homo sapiens, A549, A-549; total growth inhibition (cytostatic effect); read-out: TGI A-549

| Structure (SMILES) | IC (TGI) [nM] |
| --- | --- |
| COc1cc(-c2c3c4cc(OC)c(OC(=O)C[C@H](N)C(C)C)cc4oc(=O)c3n3ccc4cc(OC(=O)C[C@H](N)C(C)C)c(OC)cc4c23)ccc1OC(=O)C[C@H](N)C(C)C [Compound 206] | 410 |

Each compound was assayed on LoVo (assay: SRB colorimetric cell growth inhibition assay, LoVo). Settings: Homo sapiens, LoVo; GI=growth inhibition; read-out: GI50 LOVO.
Format: cell-based
How it was run: as §1

| Structure (SMILES) | GI50 [nM] |
| --- | --- |
| COc1cc(-c2c3c4cc(OC)c(OC(=O)C[C@H](N)C(C)C)cc4oc(=O)c3n3ccc4cc(OC(=O)C[C@H](N)C(C)C)c(OC)cc4c23)ccc1OC(=O)C[C@H](N)C(C)C [Compound 206] | 167 |

Same assay, conditions: Homo sapiens, LoVo; cell killing (cytotoxic effect); read-out: LC50 LOVO

| Structure (SMILES) | CC50 [nM] |
| --- | --- |
| COc1cc(-c2c3c4cc(OC)c(OC(=O)C[C@H](N)C(C)C)cc4oc(=O)c3n3ccc4cc(OC(=O)C[C@H](N)C(C)C)c(OC)cc4c23)ccc1OC(=O)C[C@H](N)C(C)C [Compound 206] | 660 |

Same assay, conditions: Homo sapiens, LoVo; total growth inhibition (cytostatic effect); read-out: TGI LOVO

| Structure (SMILES) | IC (TGI) [nM] |
| --- | --- |
| COc1cc(-c2c3c4cc(OC)c(OC(=O)C[C@H](N)C(C)C)cc4oc(=O)c3n3ccc4cc(OC(=O)C[C@H](N)C(C)C)c(OC)cc4c23)ccc1OC(=O)C[C@H](N)C(C)C [Compound 206] | 331 |

Each compound was assayed on PANC-1 (assay: SRB colorimetric cell growth inhibition assay, PANC-1). Settings: Homo sapiens, PANC-1, PANC-1; GI=growth inhibition; read-out: GI50 PANC-1.
Format: cell-based
How it was run: as §1

| Structure (SMILES) | GI50 [nM] |
| --- | --- |
| COc1cc(-c2c3c4cc(OC)c(OC(=O)C[C@H](N)C(C)C)cc4oc(=O)c3n3ccc4cc(OC(=O)C[C@H](N)C(C)C)c(OC)cc4c23)ccc1OC(=O)C[C@H](N)C(C)C [Compound 206] | 137 |

Same assay, conditions: Homo sapiens, PANC-1, PANC-1; cell killing (cytotoxic effect); read-out: LC50 PANC-1

| Structure (SMILES) | CC50 [nM] |
| --- | --- |
| COc1cc(-c2c3c4cc(OC)c(OC(=O)C[C@H](N)C(C)C)cc4oc(=O)c3n3ccc4cc(OC(=O)C[C@H](N)C(C)C)c(OC)cc4c23)ccc1OC(=O)C[C@H](N)C(C)C [Compound 206] | 6250 |

Same assay, conditions: Homo sapiens, PANC-1, PANC-1; total growth inhibition (cytostatic effect); read-out: TGI PANC-1

| Structure (SMILES) | IC (TGI) [nM] |
| --- | --- |
| COc1cc(-c2c3c4cc(OC)c(OC(=O)C[C@H](N)C(C)C)cc4oc(=O)c3n3ccc4cc(OC(=O)C[C@H](N)C(C)C)c(OC)cc4c23)ccc1OC(=O)C[C@H](N)C(C)C [Compound 206] | 1270 |
